Consider three compounds from patent publication US20130330396A1, “METHODS FOR THE TREATMENT OF THROAT DISCOMFORT” (INTERCONTINENTAL GREAT BRANDS LLC, priority 2009, published 2013).

A short description of assay [1]: Sensory evaluation of cooling agent-containing fondants (location, intensity, onset speed of cooling sensation). The assay is classed as in vivo. As to conditions: for Long-lasting mouth cooling / Long-lasting throat cooling / Predominant mouth cooling / Predominant throat cooling: in fondant at 0.03, 0.06 and 0.09 weight percent, approx. 0.5 gram dissolved in the mouth, six evaluators. On the procedure:
The cooling agents N-ethyl-2,2-diisopropylbutanamide and N,2,3-trimethyl-2-isopropylbutanamide were evaluated in fondant at concentrations of 0.03, 0.06, and 0.09 weight percent. The fondant base consisted of 85 weight percent 6X fondant sugar and 15 weight percent deionized water.
Sensory evaluations of the cooling agent-containing fondants were conducted by six evaluators, who observed the location, intensity, and onset speed of cooling sensation as they tasted approximately 0.5 gram of fondant by allowing it to dissolve in the mouth.

The nature of assay [2]: Inventors' observations on bitterness and throat versus mouth cooling. Conditions: in vivo. The source says: The present inventors have observed that N-ethyl-2,2-diisopropylbutanamide is a particularly effective for throat soothing. […] The structures of N-ethyl-2,2-diisopropylbutanamide and N,2,3-trimethyl-2-isopropylbutanamide, which differ only by two methylene (—CH2—) groups, are shown below.

The conditions of assay [3]: menthol-containing lozenge; cited from earlier work.

As to `CNC(=O)C(C)(C(C)C)C(C)C` [Example 2, N,2,3-trimethyl-2-isopropylbutanamide], in assay [1], the Long-lasting mouth cooling entry is “No”, the Long-lasting throat cooling result was “No”, the Predominant mouth cooling result is recorded as “Yes” and the Predominant throat cooling entry is recorded as “No”. In addition, in assay [2], the “Location of cooling effect (throat versus mouth)” value is “primarily in the mouth rather than the throat”.
Take `CC1CCC(C(C)C)C(O)C1` (stereo not drawn) [menthol]: in assay [3], the “Location of physiological cooling effect (throat versus mouth)” value is “felt primarily in the mouth rather than the throat”.
On to `CCNC(=O)C(CC)(C(C)C)C(C)C` [Example 1, N-ethyl-2,2-diisopropylbutanamide], for which, in assay [1], the Long-lasting mouth cooling result is recorded as “No”, the Long-lasting throat cooling entry was “Yes”, the Predominant mouth cooling entry was “No” and the Predominant throat cooling result is on record as “Yes”. In assay [1] (when used in a candy system), the “Throat cooling relative to N,2,3-trimethyl-2-isopropylbutanamide” value was “superior and unexpected throat cooling”. In assay [2], the “Location of cooling effect (throat versus mouth)” value is listed as “selectivity for throat cooling over mouth cooling”.
